Here are results for 5 compounds from patent US4035381A, “Antibacterial agents” (priority 1976, dated 1977).

Converted amounts (≈) assume the structure as drawn. “And” between values parts separate entries of the source, which are not always exact repeats. Equal values may be shown once. Where a name gives a salt, the structure may show the parent alone. Read-outs that look alike come from different tables or passages of the source.

In data set [1] the test system is S. aureus Meth.-res. A15097. Nature of the data set: Antibiotic activity in nutrient broth (MIC), S. aureus Meth.-res. It counts as cell-based. The conditions noted are these: Staphylococcus aureus.
The subject of data set [2] is Ent. cloacae A9657. Nature of the data set: Antibiotic activity in nutrient broth (MIC), Ent. cloacae A9657. The format is cell-based. The following applies: Enterobacter cloacae, 10^-4 dilution, Ex. 1/Ex. 2 figures recalculated on penicillin content.
The subject of data set [3] is Ps. aeruginosa A9843A. Nature of the data set: Antibiotic activity in nutrient broth (MIC), Ps. aeruginosa. It counts as cell-based. The following applies: Pseudomonas aeruginosa.
In data set [4] the test system is Sal. enteritidis A9531. As to the kind of experiment: Antibiotic activity in nutrient broth (MIC), Sal. enteritidis. The following applies: Salmonella enterica, 10^-4 dilution, Ex. 1/Ex. 2 figures recalculated on penicillin content. It counts as cell-based. The source says: (§1) ANTIBIOTIC ACTIVITY IN NUTRIENT BROTH
(§2) **Dilution of overnight broth culture
(§3) +These figures were […] on the basis that there was only 60.61%
(§4) amoxicillin in the sample; in other words, the numerical values were
(§5) lowered, i.e. improved.
(§6) ----//These figures were recalculated on the basis that there was only

Data set [5] can be described thus: Hygroscopicity. It counts as physicochemical. The following applies: solid product.
Data set [6] relates to Str. pyogenes A9604. Nature of the data set: Antibiotic activity in nutrient broth (MIC), Str. pyogenes. The format is cell-based. The conditions noted are these: Streptococcus pyogenes, 45% AAB + 5% serum + 50% broth, 10^-3 dilution of overnight culture, Ex. 1/Ex. 2 figures recalculated on penicillin content.
Source text: as §1
(§7) *45% AAB + 5% serum + 50% broth
as §2, §3, §4, §5, §6

Data set [7] in a line: Mouse blood levels after oral administration. The conditions noted are these: 100 mg./kg., tested twice, average of 6 mice each.
The subject of data set [8] is S. aureus Smith A9537. Nature of the data set: Antibiotic activity in nutrient broth (MIC), S. aureus Smith. It counts as cell-based. The conditions noted are these: Staphylococcus aureus, 10^-4 dilution, Ex. 1/Ex. 2 figures recalculated on penicillin content.
Source text: as §1, §2, §3, §4, §5, §6

Data set [9] is described as follows: Stability of reconstituted aqueous solution. The format is physicochemical. The conditions noted are these: 10 to 20 mg./ml. of activity.
Data set [10] deals with Ent. cloacae A9656. As to the kind of experiment: Antibiotic activity in nutrient broth (MIC), Ent. cloacae A9656. The format is cell-based. The conditions noted are these: Enterobacter cloacae, 10^-4 dilution, Ex. 1/Ex. 2 figures recalculated on penicillin content.
Data set [11] relates to Ent. cloacae A9659. As to the kind of experiment: Antibiotic activity in nutrient broth (MIC), Ent. cloacae A9659. It counts as cell-based. The conditions noted are these: Enterobacter cloacae, 10^-4 dilution, Ex. 1/Ex. 2 figures recalculated on penicillin content.
In data set [12] the test system is Pr. morganii A15153. As to the kind of experiment: Antibiotic activity in nutrient broth (MIC), Pr. morganii. The format is cell-based. The following applies: Morganella morganii, 10^-4 dilution, Ex. 1/Ex. 2 figures recalculated on penicillin content.
Data set [13] has as its system E. coli Juhl A15119. As to the kind of experiment: Antibiotic activity in nutrient broth (MIC), E. coli Juhl. The following applies: Escherichia coli, JUHLA15119, 10^-4 dilution, Ex. 1/Ex. 2 figures recalculated on penicillin content. It counts as cell-based.
Source text: as §1, §2, §3, §4, §5, §6

The test system of data set [14] is K. pneumoniae A15130. As to the kind of experiment: Antibiotic activity in nutrient broth (MIC), K. pneumoniae A15130. It counts as cell-based. The following applies: Klebsiella pneumoniae.
For data set [15], the system named is E. coli A9675. As to the kind of experiment: Antibiotic activity in nutrient broth (MIC), E. coli A9675. The format is cell-based. The conditions noted are these: Escherichia coli, 10^-4 dilution, Ex. 1/Ex. 2 figures recalculated on penicillin content.
Source text: as §1, §2, §3, §4, §5, §6

The subject of data set [16] is Pr. mirabilis A9900. As to the kind of experiment: Antibiotic activity in nutrient broth (MIC), Pr. mirabilis. The format is cell-based. The conditions noted are these: Proteus mirabilis, 10^-4 dilution, Ex. 1/Ex. 2 figures recalculated on penicillin content.
Source text: as §1, §2, §3, §4, §5, §6

Data set [17] is described as follows: Oral and intramuscular rat blood levels. The format is in vivo.
Data set [18] deals with Str. pneumoniae A9585. Nature of the data set: Antibiotic activity in nutrient broth (MIC), Str. pneumoniae. The format is cell-based. The conditions noted are these: Streptococcus pneumoniae, 45% AAB + 5% serum + 50% broth, 10^-3 dilution of overnight culture, Ex. 1/Ex. 2 figures recalculated on penicillin content.
Source text: as §1, §7, §2, §3, §4, §5, §6

Data set [19] concerns S. aureus bx 1633 A9606. As to the kind of experiment: Antibiotic activity in nutrient broth (MIC), S. aureus bx 1633. The format is cell-based. The following applies: Ex. 1/Ex. 2 figures recalculated on penicillin content.
Data set [20] can be described thus: Mouse blood levels after intramuscular administration. The conditions noted are these: 10 mg./kg., average of six animals, unit assumed.
Data set [21] relates to Ser. marcescens A20019. As to the kind of experiment: Antibiotic activity in nutrient broth (MIC), Ser. marcescens. It counts as cell-based. The conditions noted are these: Serratia marcescens, 10^-4 dilution, Ex. 1/Ex. 2 figures recalculated on penicillin content.
Source text: as §1, §2, §3, §4, §5, §6

Data set [22] is described as follows: Bioassay. The following applies: theory 730 (Ex. 1) / 596 (Ex. 2) mcg./mg.
Data set [23] is described as follows: In vitro antibacterial spectrum / activity. The following applies: vs amoxicillin (Ex. 1) or ampicillin (Ex. 2). The format is cell-based.
Data set [24] relates to K. pneumoniae A9977. As to the kind of experiment: Antibiotic activity in nutrient broth (MIC), K. pneumoniae A9977. It counts as cell-based. The conditions noted are these: Klebsiella pneumoniae, 10^-4 dilution, Ex. 1/Ex. 2 figures recalculated on penicillin content.
Source text: as §1, §2, §3, §4, §5, §6

Data set [25] can be described thus: Hydrolysis to parent penicillin (paper strip and liquid chromatography). The conditions noted are these: 0.2 mg./ml.; pH 6.5-7.0 buffer or serum; room temperature and 37° C. It counts as in vitro ADME.
For data set [26] the following is noted: cited from earlier work.
The mark [27] stands for this setting: 3.5 hours, in µg/mL (unit assumed).
Where [28] appears, read: SMITHA9537, nutrient broth, no serum.

What is called MIC is the least concentration at which growth counts as inhibited. With `CC1(C)S[C@@H]2[C@H](N3C(=O)[C@@H](c4ccc(O)cc4)NC3c3ccc(S(=O)(=O)O)o3)C(=O)N2[C@H]1C(=O)O` (mixture of isomers) [Example 1, Disodium 6-[D(-)2-(±)5-Sulfo-2-furyl-5-oxo-4-p-hydroxyphenyl-1-imidazolidinyl]penicillanate], the MIC in [1] was greater than 125 µg/mL; in data set [2], 63 µg/mL; in data set [3], greater than 125 µg/mL; in [4], 0.13 µg/mL; in data set [6], 0.0005 µg/mL; in data set [8] (SMITHA9537, +50% serum), 0.13 µg/mL. The minimum inhibitory concentration (MIC) in data set [8] (setting [28]) was 0.06 µg/mL; in [10], greater than 125 µg/mL; in data set [11] it was 63 µg/mL; in data set [12], greater than 125 µg/mL; in data set [13], 1 µg/mL; in [14] it was 125 µg/mL. The MIC was 16 µg/mL in data set [15]; 0.25 µg/mL in data set [16]; 0.0005 µg/mL in data set [18]; greater than 125 µg/mL in data set [19] (10^-2 dilution); greater than 125 µg/mL in data set [19] (Staphylococcus aureus, BX1633A9606, 10^-3 dilution, read-out: MIC); 32 µg/mL in [21]. Also, the MIC in data set [24] is 0.13 µg/mL. The hygroscopicity result in data set [5] is recorded as “nonhygroscopic”. Moreover, the Blood level in [7] (0.5 hours, listed as Ex. 1, in µg/mL (unit assumed)) is 6.3 and 9.5; in data set [7] (1 hour, listed as Ex. 1, in µg/mL (unit assumed)), 7.2 and 10.4; in data set [7] (2 hours, listed as Ex. 1, in µg/mL (unit assumed)), 3.9 and 4.9; in data set [7] (setting [27]), 1.1. Also, the “stable at room temperature (diluted solution)” value in [9] is “at least 24 hours”. In addition, the “Intramuscular rat blood levels compared with parent penicillin” value in data set [17] (intramuscular) is listed as “substantially equal to those of amoxicillin”. The “Oral rat blood levels compared with parent penicillin” value in [17] (oral) is listed as “substantially equal to those of amoxicillin”. Moreover, the Mouse blood level turned out to be 7.3 µg/mL in [20] (0.25 hours), 5.4 µg/mL in data set [20] (0.5 hours), 2.1 µg/mL in [20] (1 hour) and 1.1 µg/mL in data set [20] (1.5 hours). In data set [22], this compound returned a Bioassay of 696 µg/mg. For the same compound, the “in vitro antibacterial spectrum compared with parent penicillin” value in data set [23] was “substantially equivalent to that of amoxicillin”. Further, in [25], the “hydrolysis in water to parent penicillin” value is “rapidly hydrolyzes in water to amoxicillin”.
Turning to `CC1(C)S[C@@H]2[C@H](NC(=O)[C@H](N)c3ccc(O)cc3)C(=O)N2[C@H]1C(=O)O` [Amoxicillin, D(-)-α-amino-p-hydroxybenzylpenicillin, reference compound], the MIC was 63 µg/mL (≈ 172 µM) in data set [2]; 0.008 µg/mL (≈ 0.0219 µM) in [4]; no more than 0.002 µg/mL in data set [6]; 0.008 µg/mL (≈ 0.0219 µM) in [8] (SMITHA9537, +50% serum); 0.008 µg/mL (≈ 0.0219 µM) in [8] (setting [28]); 0.5 µg/mL (≈ 1.37 µM) in [13]. Besides, the MIC was 8 µg/mL (≈ 21.9 µM) in data set [15], no more than 0.016 µg/mL in [16], no more than 0.002 µg/mL in data set [18] and 16 µg/mL (≈ 43.8 µM) in data set [21]. Besides, the Blood level in data set [7] (0.5 hours, in µg/mL (unit assumed)) was 7.9 and 13.9; in data set [7] (1 hour, in µg/mL (unit assumed)), 7.4 and 12.4; in data set [7] (2 hours, in µg/mL (unit assumed)) it was 4.6 and 5.8; in data set [7] (setting [27]) it was 1.5 and 0.8. Besides, the Mouse blood level was 7.7 µg/mL in [20] (0.25 hours), 4.3 µg/mL in [20] (0.5 hours), 1.9 µg/mL in data set [20] (1 hour) and 0.6 µg/mL in data set [20] (1.5 hours).
Regarding `CC1(C)S[C@@H]2[C@H](NC(=O)[C@H](N)c3ccccc3)C(=O)N2[C@H]1C(=O)O` [Ampicillin, D(-)-α-aminobenzyl-penicillin, reference compound], the MIC in [2] was 32 µg/mL (≈ 91.6 µM); in data set [4] it was 0.013 µg/mL (≈ 0.0372 µM); in data set [6] it was 0.008 µg/mL; in [8] (SMITHA9537, +50% serum), 0.13 µg/mL (≈ 0.372 µM); in data set [8] (setting [28]) it was 0.13 µg/mL (≈ 0.372 µM); in [11] it was 63 µg/mL (≈ 180 µM). Besides, the MIC in [13] is 2 µg/mL (≈ 5.72 µM); in data set [15] it was 16 µg/mL (≈ 45.8 µM); in [16] it was 0.25 µg/mL (≈ 0.715 µM); in [18] it was 0.008 µg/mL; in data set [21] it was 32 µg/mL (≈ 91.6 µM); in [24], 0.25 µg/mL (≈ 0.715 µM).
For the compound `CC1(C)S[C@@H]2[C@H](N3C(=O)[C@@H](c4ccccc4)NC3(C)C)C(=O)N2[C@H]1C(=O)O` [hetacillin], the “stability in aqueous solution compared with parent penicillins” value in data set [26] (as sodium salts) was “somewhat more stable”.
As for `CC1(C)S[C@@H]2[C@H](NC(=O)[C@H](N)c3ccc(O)cc3)C(=O)N2[C@H]1C(=O)O` [potassium salt], in [26] (250 mg./ml., room temperature), the “stable (reconstituted with water)” value was 15 min. The “precipitation from solution on standing” value in data set [26] (reconstituted with water, 250 mg./ml.) is “precipitates out of solution on standing”.
